Reference: patent US20110014204A1, “Cancer Chemoprevention Strategy Based on Loss of Imprinting of IGF2” (priority 2006, published 2011)

Assays:
mouse ES cells = test: IGF2 stimulation of mouse ES cells, gene expression by real-time RT-PCR, with or without NVP-AEW541; type: cell-based; conditions: for increase in Cdc6 gene expression: 800 ng/ml mouse Igf2 recombinant protein
Protocol: (§1) Mouse ES cells were cultured in defined medium and treated with 800 ng/ml mouse lgf2 protein. Gene expression was analyzed by real-time RT-PCR and normalized to β-actin. Shown is the expression level without (black boxes) and with (gray boxes) the IGF1R inhibitor 3 μM NVP-AEW541 (a pyrrolo-2,3d-pyrimidine), normalized to time 0. The bars indicate standard error.
as §1, with “(pink” for “(gray”, “IGF1R R” for “IGF1R”, “NVP-AEW541,” for “NVP-AEW541 (a pyrrolo-2,3d-pyrimidine),”, “bar represents” for “bars indicate”
For IGF2 stimulation, wild type ES cells were isolated as described above, and cultured in ESGRO Complete Basal Medium with 800 ng/ml of mouse Igf2 recombinant protein (StemCell Technologies), with or without 3 μM NVP-AEW541 (Novartis). Cells were washed with PBS twice and RNA was extracted using the RNeasy Kit (QIAGEN) at Oh, 3 h, 6 h, 10 h, and 24 h. Gene expression was assayed by real-time quantitative RT-PCR as described above.
It remained theoretically possible that the observed difference in gene expression simply reflected the over-representation of progenitor cells within the intestinal crypts, rather than a change in cellular gene expression per se. To confirm the latter, mouse embryonic stem (ES) cells were derived and plated in ESGRO Complete Clonal Grade defined medium (Chemicon), which contains no IGF2 and allows growth of undifferentiated ES cells without a feeder layer, which was done with or without 800 ng/ml of mouse Igf2 recombinant protein (StemCell Technologies). Consistent with the microarray experiments, Igf2 induced a 50% and 56% increase in Cdc6 gene expression at 3 and 6 hours, respectively, and 40% and 25% at 10 and 24 hours, respectively (FIG. 3).

Akt/PKB = test: Microfluidic chamber single cell immunocytochemistry of Akt/PKB activation (phospho-Akt Ser 473) in LOI(+) and LOI(−) MEF cells; type: cell-based, mouse; conditions: for inhibition of IGF2-triggered Akt activation: 60 min coincubation with 400 ng/ml IGF2 and 3 μM NVP-AEW541
Protocol: (A) Akt/PKB activation was assayed by single cell immunocytochemistry with an antibody to phosphorylated Akt (Ser 473), in a monolithic 2-layer PDMS chip sealed with a glass coverslip, with defined media delivery controlled by a multiplexed system of valves. Live LOI(+) and LOI(−) MEF cells were stimulated within the microfluidic chips with varying doses of IGF2, with measurements at multiple time points at each IGF2 concentration. […] For each cell type, IGF2 concentration, and time point, at least 200 individual cellular measurements were obtained by digital imaging and analysis. (B) Inhibition of Akt activation by NVP-AEW541. The cells were assayed as in (A) at 60 min after coincubation with 400 ng/ml IGF2 and 3 μM NVP-AEW541 and compared with the unstimulated control. Each bar is based on measurements of >400 cells. Asterisk indicates statistical difference vs LOI(+) control (t test, P<0.001) (C) Single cell analysis of ERK activation by IGF2 in LOI(+) and LOI(−) MEF cells. Erk activation was assayed by single immunocytochemistry within microfluidic chips using an antibody to phosphorylated Erk2 from Upstate (Charlottesville, Va.). LOI(+) cells (gray) and LOI(−) cells (black) were exposed to 400 ng/ml IGF2 for indicated times. […] Error bars represent SD. Standard error bars are completely subsumed by the symbols on this scale. (D) Gene expression levels in mouse embryonic fibroblasts. Quantitative real-time PCR was performed on LOI(+) and LOI(−) MEF cells, with expression normalized to transferring receptor expression. The expression level in LOI(+) samples (black) relative to LOI(−) samples (gray) is shown. The bars indicate standard error.
The immunostaining automation device consists of a monolithic 2-layer PDMS chip sealed with a glass coverslip, fabricated using techniques described previously (Unger et al., Science 288 (2000) 288:113-116). Multiplexing valves were actuated by pressure lines connected to off-device solenoid valves. The chip architecture, performance and validation are all described in a separate manuscript submitted for publication. The glass substrate of the cell culture chamber was coated by introducing 0.1% gelatin (Sigma) into the device for at least 30 minutes, then cells were introduced and allowed to attach for 3 hours. IGF2 (StemCell Technologies) dissolved in cell media was introduced to each chamber at different times so that the end of all stimulation periods coincided. To end the experiment, ice-cold PBS (Invitrogen) was introduced into all chambers followed immediately by 4% paraformaldehyde (Electron Microscopy Systems) for 20 minutes. Cells were permeabilized with 0.1% Triton X-100 (Sigma) for 5 min and blocked with 10% goat serum (Sigma), with PBS washes in between. […] Using custom MATLAB (Mathworks) programs, the images were […], stitched together, and quantified. […] For each cell type and time point, 200-300 cells were analyzed in this manner to ensure statistical significance.
Since both the endogenous IGF2 and IGF2 used in the MEF experiments are susceptible to IGF2 binding protein (IBP)-based inactivation, the dose of an IBP-resistant IGF2 variant was determined producing similar levels of Akt activation. […]

IGF1R [1] = target: T1, IGF1R (Homo sapiens, UniProt P08069); conditions: previously estimated; read-out: kD of IGF1R for IGF2; cited from earlier work
Target sequence in this assay (P08069 31-736 limits assumed, species assumed): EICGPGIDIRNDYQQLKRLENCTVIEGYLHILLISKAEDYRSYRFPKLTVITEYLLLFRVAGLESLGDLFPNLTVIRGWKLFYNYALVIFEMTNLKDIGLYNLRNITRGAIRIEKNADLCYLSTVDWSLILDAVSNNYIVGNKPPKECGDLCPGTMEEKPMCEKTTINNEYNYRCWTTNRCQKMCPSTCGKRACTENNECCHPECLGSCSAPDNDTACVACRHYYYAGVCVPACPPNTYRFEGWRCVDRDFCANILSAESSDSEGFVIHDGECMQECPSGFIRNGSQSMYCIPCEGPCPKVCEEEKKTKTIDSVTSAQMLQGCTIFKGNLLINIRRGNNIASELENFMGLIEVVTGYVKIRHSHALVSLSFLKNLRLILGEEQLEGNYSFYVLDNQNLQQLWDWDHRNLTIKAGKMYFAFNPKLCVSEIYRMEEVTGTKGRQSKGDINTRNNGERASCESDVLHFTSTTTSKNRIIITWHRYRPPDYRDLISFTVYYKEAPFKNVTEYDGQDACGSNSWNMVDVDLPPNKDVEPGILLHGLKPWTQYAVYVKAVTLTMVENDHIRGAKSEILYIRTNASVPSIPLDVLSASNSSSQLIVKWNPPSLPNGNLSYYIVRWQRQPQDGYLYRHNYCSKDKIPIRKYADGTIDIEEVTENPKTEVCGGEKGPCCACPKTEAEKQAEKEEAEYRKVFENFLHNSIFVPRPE
Target sequence in this assay (P08069 741-1367 partner limits assumed, species assumed): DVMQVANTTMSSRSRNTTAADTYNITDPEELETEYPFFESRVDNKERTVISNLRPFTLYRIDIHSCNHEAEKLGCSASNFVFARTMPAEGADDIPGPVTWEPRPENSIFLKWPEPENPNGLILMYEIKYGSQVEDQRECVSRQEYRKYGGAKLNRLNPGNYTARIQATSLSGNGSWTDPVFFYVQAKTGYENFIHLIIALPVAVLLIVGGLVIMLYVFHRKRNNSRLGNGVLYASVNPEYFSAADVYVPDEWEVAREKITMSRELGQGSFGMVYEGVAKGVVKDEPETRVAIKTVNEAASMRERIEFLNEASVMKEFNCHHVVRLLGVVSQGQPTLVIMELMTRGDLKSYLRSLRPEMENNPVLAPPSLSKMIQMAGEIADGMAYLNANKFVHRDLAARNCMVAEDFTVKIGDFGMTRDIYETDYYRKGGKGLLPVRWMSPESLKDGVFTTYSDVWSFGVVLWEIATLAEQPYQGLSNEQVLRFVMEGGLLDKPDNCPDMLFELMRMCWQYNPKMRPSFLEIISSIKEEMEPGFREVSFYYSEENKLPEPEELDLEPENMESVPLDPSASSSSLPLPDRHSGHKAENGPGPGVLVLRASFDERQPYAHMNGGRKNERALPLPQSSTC

[2] = tested on: aberrant crypt foci (ACF); test: Azoxymethane (AOM)-induced aberrant crypt foci (ACF) in LOI(+) and LOI(−) mice, NVP-AEW541 by oral gavage; type: in vivo; conditions: for AOM-induced ACF formation: AOM plus NVP-AEW541 50 mg/kg oral gavage for 6 weeks; for decrease in ACFs normalized to colon surface area: AOM, treated with the inhibitor; for ACF per colon: AOM intraperitoneally weekly for 3 weeks, sacrificed at 5 weeks, no inhibitor
Protocol: ACF formation in the colon was induced by AOM intraperitoneal injection, and treatment with NVP-AEW541 was by gastric gavage. Each ACF was formed of 1-4 aberrant crypts, and the number of ACF (# of ACF), the number of total aberrant crypts (# of AC), and the average number of aberrant crypts per ACF were measured.
(A) ACF formation in the colon was induced by AOM i.p. injection, and treatment with NVP-AEW541 was by gastric […]. Each ACF was formed of […] aberrant crypts, and the number of ACF (# of ACF), the number of total aberrant crypts (# of AC), and the average number of aberrant crypts per ACF were measured. LOI(+) AOM mice (dark gray bars), LOI(−) AOM mice (black bars), LOI(+) AOM NVP mice (light gray bars), LOI(−) AOM NVP mice (gray bars). (B) The number of ACF and the number of total aberrant crypts (AC) were corrected by colon surface area (cm^2).
7 week old LOI(+) and LOI(−) littermate controls were treated with AOM at 10 mg/kg body weight intraperitoneally once per week for three weeks, and euthanized 5 weeks after the first dose of AOM. The entire colon was resected from mice after laparotomy, flushed with PBS, filled with 10% buffered formalin (Sigma) for one minute, opened longitudinally, fixed flat between filter paper in formalin at 4° C. overnight, rinsed with PBS, and stained with 0.2% methylene blue in saline. The number of ACF per colon and the number of aberrant crypts per ACF were scored under a light microscopy as previously described Bird, Cancer Lett (1987) 37:147-151). NVP-AEW541 (50 mg/kg) was administered by oral gavage, beginning 1 week before AOM treatment, and NVP-AEW541 was administered 7 days/week, twice a day for 5 weekdays and once a day for 2 weekend days, for 6 weeks until sacrifice.
Because of known strain variation in progression of these lesions, littermate controls were treated with and without LOI, in which the dams were heterozygous for a deletion of the H19 differentially methylated region (DMR); inheritance of a maternal allele lacking the DMR leads to activation of the normally silent allele of Igf2 [LOI(+)], while inheritance of a wild type maternal allele leads to normal imprinting [LOI(−)]. Eight LOI(+) and 14 LOI(−) mice were given AOM intraperitoneally weekly for 3 weeks, sacrificed at 5 weeks after the first dose, and ACF were scored by the method of Bird (1987). Histologic examination of colons from AOM-treated mice confirmed the presence of ACF, with hyperproliferative features including increased mitosis, crypt enlargement and crypt disarray (FIG. 12). […] An additional intriguing finding in AOM-treated LOI(+) mice was cystically dilated crypts lined by enlarged cells with atypical nuclei and that contained necrotic debris, that were reminiscent of sessile serrated adenomas (SSAs) seen in the human colon (FIG. 12). SSAs also show crypt dilatation in association with cytologic atypia and are currently of immense interest for their recently recognized association with colorectal cancer (Snover et al., Am J Clin Pathol (2005) 124:380-391). It will thus be of interest to determine whether SSAs are associated with LOI in the human population.
An additional 9 LOI(+) mice and 9 LOI(−) control littermates were similarly exposed to AOM, adding treatment with NVP-AEW541, an IGF1R inhibitor, at a dose of 50 mg/kg by oral gavage daily for 6 weeks (twice daily except daily on weekends). […] Thus, LOI of lgf2 increases the sensitivity to AOM through an IGF1R-dependent mechanism.
Eight LOI(+) and 14 LOI(−) mice were given AOM intraperitoneally weekly for 3 weeks, sacrificed at 5 weeks after the first dose, and ACFs were scored as described (Bird (1987)). Histologic examination of colons from AOM-treated mice confirmed the presence of ACFs, with hyperproliferative features including increased mitosis, crypt enlargement and crypt disarray (FIG. 14A, B). […]

intestinal crypts = test: Proliferation-related gene expression in laser capture microdissected intestinal crypts of mice treated with NVP-AEW541 for 3 weeks (real-time PCR); type: in vivo; conditions: mice treated with NVP-AEW541 50 mg/kg oral gavage for 3 weeks; LOI(−) normalized to 1.0
Protocol: Qunatitative real-time PCR was performed on laser capture microdissected intestinal crypts from 12 LOI(+) and 9 LOI(−) mice. Expression was normalized to β-actin, and the expression level in LOI(+) samples (gray) relative to LOI(−) samples (black) is shown. The bars indicate standard error. […] Analysis was by quantitative real-time PCR of laser capture microdissected crypts from four LOI(+) mice and four LOI(−) mice treated with NVP-AEW541 for 3 weeks. LOI(+) (gray bars), LOI(−) mice (black bars normalized to 1.0).
For validation, LCM was performed on an additional 12 LOI(+) and 9 LOI(−) mice, isolating approximately 800 crypts yielding more than 300 ng of total RNA from each. RNA samples were reverse-transcribed using SUPERSCRIPT II (Invitrogen), and quantified using SYBR Green PCR Core Reagents and an ABI Prism 7700 Sequence Detection System (Applied Biosystems), and normalized to β-actin.
Four LOI(+) and four LOI(−) mice were also treated with NVP-AEW541 to inhibit IGF2 signaling, at a dose of 50 mg/kg by oral gavage daily for 3 weeks (twice daily except daily on weekends). NVP-AEW541 is an ATP-competitive inhibitor of IGF-IR which blocks signaling at the IGF1 receptor, which mediates IGF2 signaling (Garcia-Echeverria et al., Cancer Cell (2004) 5:231-239). […] Thus, LOI-induced changes in proliferation-related gene expression were mediated, at least in part, through IGF2 signaling itself.

IGF1 receptor = target: T2, IGF1 receptor (Mus musculus, UniProt Q60751); test: Western blot of IGF2 signaling at the IGF1 receptor in NIH 3T3 cells with varying NVP-AEW541; type: cell-based; conditions: varying concentrations of NVP-AEW541, with or without IGF2
T2 construct: endogenous in cells; host or cells: NIH 3T3 cells
T2 sequence (Q60751 31-1373): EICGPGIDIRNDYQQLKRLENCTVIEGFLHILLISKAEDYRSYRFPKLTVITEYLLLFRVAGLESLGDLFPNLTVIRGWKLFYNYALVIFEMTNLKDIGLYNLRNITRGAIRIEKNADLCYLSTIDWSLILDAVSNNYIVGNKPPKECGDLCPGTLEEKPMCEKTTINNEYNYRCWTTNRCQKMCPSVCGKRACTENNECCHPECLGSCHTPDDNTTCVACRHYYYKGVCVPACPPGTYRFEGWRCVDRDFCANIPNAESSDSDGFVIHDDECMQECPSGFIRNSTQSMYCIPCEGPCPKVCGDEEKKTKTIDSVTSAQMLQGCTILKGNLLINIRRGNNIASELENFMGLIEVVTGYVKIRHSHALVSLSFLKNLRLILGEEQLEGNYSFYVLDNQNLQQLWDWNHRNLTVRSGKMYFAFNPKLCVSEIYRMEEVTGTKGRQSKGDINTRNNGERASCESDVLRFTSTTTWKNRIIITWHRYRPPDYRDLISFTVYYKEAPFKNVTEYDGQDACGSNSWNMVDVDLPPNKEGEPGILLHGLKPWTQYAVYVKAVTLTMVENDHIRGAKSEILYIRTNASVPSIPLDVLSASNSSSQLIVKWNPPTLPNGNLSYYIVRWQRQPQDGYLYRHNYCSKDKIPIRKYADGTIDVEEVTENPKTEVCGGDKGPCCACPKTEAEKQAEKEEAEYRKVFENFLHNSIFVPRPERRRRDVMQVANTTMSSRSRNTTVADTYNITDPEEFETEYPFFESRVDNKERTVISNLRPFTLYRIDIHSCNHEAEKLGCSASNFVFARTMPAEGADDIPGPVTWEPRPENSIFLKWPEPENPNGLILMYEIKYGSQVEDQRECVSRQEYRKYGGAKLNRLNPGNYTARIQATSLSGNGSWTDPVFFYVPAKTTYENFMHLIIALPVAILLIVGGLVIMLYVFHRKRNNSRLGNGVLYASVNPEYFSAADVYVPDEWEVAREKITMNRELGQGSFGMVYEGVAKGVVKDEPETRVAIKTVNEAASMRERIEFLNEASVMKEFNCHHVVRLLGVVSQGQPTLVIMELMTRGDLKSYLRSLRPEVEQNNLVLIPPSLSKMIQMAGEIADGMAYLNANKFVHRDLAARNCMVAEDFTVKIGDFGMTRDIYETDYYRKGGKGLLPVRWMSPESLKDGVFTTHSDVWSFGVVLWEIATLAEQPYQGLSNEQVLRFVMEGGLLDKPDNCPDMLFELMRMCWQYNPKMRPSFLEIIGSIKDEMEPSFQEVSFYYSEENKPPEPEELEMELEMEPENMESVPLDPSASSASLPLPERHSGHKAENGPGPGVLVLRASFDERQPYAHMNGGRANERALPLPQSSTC
Protocol: NIH 3T3 cells were passaged every 3 days and maintained with low glucose DMEM plus 10% CBS in 5% CO2. The day prior to transfection cells were trypinsized and seeded into PLL-coated glass bottom Mattek dishes. Cells typically reached about 70% confluence the next day, when they were transfected with eGFP-Akt-PH plasmid with Fugene lipid following the manufacturer's instructions. 8 hours after transfection, cells were starved in 0.2% CBS in low glucose DMEM (with no antibiotics) for at least 12 hours. Western blots were performed with the antibodies shown, and varying concentrations of NVP-AEW541, with or without IGF2.

IGF1R [3] = target: T1, IGF1R; conditions: cited from earlier work
Target sequence in this assay (P08069 31-1367, species assumed): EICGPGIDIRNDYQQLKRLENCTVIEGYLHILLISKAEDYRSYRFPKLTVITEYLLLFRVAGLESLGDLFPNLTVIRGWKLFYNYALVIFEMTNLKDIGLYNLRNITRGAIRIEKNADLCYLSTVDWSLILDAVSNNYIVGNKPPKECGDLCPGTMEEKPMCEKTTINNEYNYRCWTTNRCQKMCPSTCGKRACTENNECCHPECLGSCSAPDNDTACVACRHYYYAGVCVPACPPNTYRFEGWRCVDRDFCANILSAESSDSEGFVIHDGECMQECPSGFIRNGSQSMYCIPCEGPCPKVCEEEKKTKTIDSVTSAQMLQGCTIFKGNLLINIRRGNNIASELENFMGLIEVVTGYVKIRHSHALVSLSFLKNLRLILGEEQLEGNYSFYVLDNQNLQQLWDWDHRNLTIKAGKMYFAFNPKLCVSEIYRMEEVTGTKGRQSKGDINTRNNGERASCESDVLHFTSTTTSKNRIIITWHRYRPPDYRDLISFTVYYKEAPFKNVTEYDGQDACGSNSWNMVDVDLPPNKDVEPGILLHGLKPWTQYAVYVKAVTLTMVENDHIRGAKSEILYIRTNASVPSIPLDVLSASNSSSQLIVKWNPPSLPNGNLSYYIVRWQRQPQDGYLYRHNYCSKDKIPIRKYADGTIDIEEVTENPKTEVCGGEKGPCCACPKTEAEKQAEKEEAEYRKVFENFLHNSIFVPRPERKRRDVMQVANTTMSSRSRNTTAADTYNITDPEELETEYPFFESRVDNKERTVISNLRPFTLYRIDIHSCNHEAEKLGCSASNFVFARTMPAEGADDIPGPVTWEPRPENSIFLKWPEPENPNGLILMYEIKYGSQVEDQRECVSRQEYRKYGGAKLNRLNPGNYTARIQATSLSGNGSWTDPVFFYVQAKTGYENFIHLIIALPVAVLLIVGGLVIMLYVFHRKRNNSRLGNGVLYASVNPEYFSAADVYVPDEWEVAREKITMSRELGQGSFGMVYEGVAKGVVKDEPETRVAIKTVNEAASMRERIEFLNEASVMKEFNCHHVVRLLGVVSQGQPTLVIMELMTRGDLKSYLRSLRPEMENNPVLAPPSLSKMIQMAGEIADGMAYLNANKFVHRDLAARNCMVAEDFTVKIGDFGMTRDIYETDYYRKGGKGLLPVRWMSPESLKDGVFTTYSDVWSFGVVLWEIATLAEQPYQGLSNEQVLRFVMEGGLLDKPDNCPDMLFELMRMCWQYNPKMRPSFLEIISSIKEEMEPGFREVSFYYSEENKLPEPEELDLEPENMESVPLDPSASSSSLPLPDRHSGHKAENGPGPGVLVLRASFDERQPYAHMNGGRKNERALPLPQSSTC

Compound: insulin-like growth factor 2 [IGF2]
- increase in Cdc6 gene expression (mouse ES cells; 3 hours): 50%
- increase in Cdc6 gene expression (mouse ES cells; 6 hours): 56%
- increase in Cdc6 gene expression (mouse ES cells; 10 hours): 40%
- increase in Cdc6 gene expression (mouse ES cells; 24 hours): 25%
- Akt signal at higher IGF2 doses (Akt/PKB; LOI(+) MEF cells, IGF2 doses above 400 ng/ml): progressively more transient and less pronounced
- duration of sustained Akt activation (Akt/PKB; LOI(+) MEF cells, lowest IGF2 concentration 400 ng/ml): > 120 min
- return of Akt activation to the baseline (Akt/PKB; LOI(−) MEF cells, IGF2 400, 800 and 1600 ng/ml): ≤ 90 min
- Kd (IGF1R [1]): 1 to 10 nM

Compound: Nc1ncnc2c1c(-c1cccc(OCc3ccccc3)c1)cn2C1CC(CN2CCC2)C1 (stereo not shown) [NVP-AEW541]
- effect on IGF2-induced increased expression of Cdc6 (mouse ES cells; 800 ng/ml Igf2, 3 μM NVP-AEW541, all time points): completely abrogated
- AOM-induced ACF formation ([2]; LOI(+) mice): 7.8±1.2 ACF per colon
- decrease in ACFs normalized to colon surface area ([2]; LOI(+) mice): 56%
- AOM-induced ACF formation ([2]; LOI(−) mice): 11.3±1.6 ACF per colon
- decrease in ACFs normalized to colon surface area ([2]; LOI(−) mice): no decrease
- inhibition of IGF2-triggered Akt activation (Akt/PKB; LOI(+) MEF cells): significantly below the baseline
- inhibition of IGF2-triggered Akt activation (Akt/PKB; LOI(−) MEF cells): inhibited to the baseline levels
- Ccne1 expression in LOI(+) crypts relative to LOI(−) crypts (intestinal crypts): 0.57 fold
- Cdc6 expression in LOI(+) crypts relative to LOI(−) crypts (intestinal crypts): 0.49 fold
- Chaf1a expression in LOI(+) crypts relative to LOI(−) crypts (intestinal crypts): 0.42 fold
- Lig1 expression in LOI(+) crypts relative to LOI(−) crypts (intestinal crypts): 0.42 fold
- Mcm3 expression in LOI(+) crypts relative to LOI(−) crypts (intestinal crypts): 0.65 fold
- Mcm5 expression in LOI(+) crypts relative to LOI(−) crypts (intestinal crypts): 0.48 fold
- inhibition of IGF2 signaling at the IGF1 receptor (IGF1 receptor): blocks IGF2 at IGF1R
- selectivity for IGF1R over the insulin receptor (IGF1R [3]): specifically inhibits IGF1R over the related insulin receptor

Compound: CN=[N+](C)[O-] [AOM, azoxymethane]
- ACF per colon ([2]; LOI(+) mice): 19.8±2.2 ACF per colon
- ACF per colon ([2]; LOI(−) mice): 12.4±0.9 ACF per colon
